We go through nine molecules from US4316955A, “Enzymatic deesterification of cephalosporin methyl esters” (Eli Lilly and Company, priority 1980, dated 1982).

Test [1] has as its system A49492 (Streptomyces capillispira). Description: Antibiotic disk sensitivity test of A49492. Note: key: +: a plus indicates that a zone of inhibition was formed; -: a minus sign indicates that there was no inhibition zone. The following applies: ISP No. 2 agar seeded with 2% vegetative inoculum; amount per disk: Erythromycin 15 μg, Keflin 30 μg, Lincomycin 2 μg, Nystatin 100 U, Polymixin B 300 U, Streptomycin 10 μg, Tetracycline 30 μg, Vancomycin 5 μg. It is filed as cell-based. The method, then: Sodium chloride and sucrose tolerance were measured using ISP No. 2 agar. Antibiotic sensitivity was determined with sensitivity discs placed onto the surface of ISP No. 2 agar plates seeded with 2% vegetative inoculum.
In the table below, the column headed "Amount" indicates the amount of the antibiotic deposited on each disk.

For test [2], the system named is enzyme produced by Streptomyces capillispira. Description: Deesterification shown by paper chromatography and bioautography. The class given is biochemical. The following applies: 3-day culture, 30°, 16-20 hours; chromatogram acylated with phenoxyacetyl chloride; plate seeded with B. subtilis. The method, then: The usual method made use of filter paper chromatography, with 4/1 acetonitrile/water as the solvent.
If the substrate ester was a cephalosporin nucleus ester, having only an amino group at the 7-position, then the amount of acid could not be measured directly, because the nucleus acid is not active against the test organism.
The inoculated tube was shaken at 30° for 3 days, and then 4 ml. of the culture was transferred to a 50-ml. flask. To the flask was added 1 ml. of a filter-sterilized substrate solution containing 5 mg./ml. of methyl 7-amino-3-methyl-3-cephem-4-carboxylate at pH 7.0.
The flask was then incubated with shaking at 30° for 16-20 hours to allow the enzyme to deesterify the substrate compound.
The supernatant from the centrifugation was evaluated by paper chromatography as described above, using 4/1 acetonitrile/water as the solvent.
A substrate solution containing about 2 mg./ml. of methyl 7-amino(phenyl)acetamido-3-methyl-3-cephem-4-carboxylate (methyl cephalexin) was prepared in water, at pH 7.2. […] The mixture was shaken at 30° for 4 hours, and was then analyzed by paper chromatography, overlaying the chromatograms on nutrient agar plates seeded with Sarcina lutea.

Test [3] shares this test system. Put plainly: Rate of enzymatic deesterification of cephalosporin methyl esters (titrimetric / spot-plate). The class given is biochemical. The method, then:
Another detection method, called the spot plate method, was carried out by pipetting a carefully measured amount, usually 10 μl., of the mixture to be analyzed onto a filter paper sheet which had small zones outlined by lacquer so that liquids placed on the zones were isolated from each other. If the substrate compound was a nucleus ester, so that acylation was necessary, each zone was also spotted with 10 μl. of 2% sodium bicarbonate solution, and 20 μl. of 2.5% phenoxyacetyl chloride in petroleum ether. The spots were air-dried, and the paper sheets were overlaid on the agar surface of an assay plate which had been seeded with a spore suspension of B. subtilis. The sheets were left on the agar plates for about 45 minutes, and were then removed and the agar plates were incubated at 25° overnight. The sizes of the zones of inhibition were then measured, and the amount of cephalosporin acid in the sample was determined by comparison with the sizes of the zones produced by known amounts of the cephalosporin acid which was the product of the deesterification.
The above biological analytical methods are useful both for unpurified fermentation mixtures, and for purified enzyme preparations. Purified preparations are readily analyzed by titrimetric methods which determine the amount of acid produced by measuring the amounts of base needed to maintain constant pH during the reaction. Thus, the deesterification reaction is easily monitored with an automatic titrator by adding the enzyme preparation to an appropriate substrate solution and following the course of deesterification by the amount of base added to the sample by the automatic titrator.
The activity of the enzyme preparations in the following examples is described as a rate, usually measured in terms of (moles of substrate deesterified)/(mg. of protein or cells)(minute). In some instances, the activity of the enzyme was described in other ways, and such instances are explained in the pertinent examples.
The substrate against which enzyme activity was measured was methyl 7-amino-3-methyl-3-cephem-4-carboxylate unless otherwise stated.
In this experiment, the enzyme preparation of Example 16 was used to deesterify methyl cephalexin, and the rate of hydrolysis was measured by pH-stat titration. Reaction mixtures were prepared as shown in Example 16, except that 1 ml. of the enzyme preparation and 2 ml. of substrate solution were used, so that the final reaction mixture contained 2.5 mg./ml. of protein.
A purified enzyme preparation, prepared substantially as described in Example 15 above, and containing 0.66 mg./ml. of protein was used to deesterify methyl 7-amino(phenyl)acetamido-3-chloro-3-cephem-4-carboxylate(methyl cefaclor). […]

Consider `CC[C@H]1OC(=O)[C@H](C)[C@@H](O[C@H]2C[C@@](C)(OC)[C@@H](O)[C@H](C)O2)[C@H](C)[C@@H](O[C@@H]2O[C@H](C)C[C@H](N(C)C)[C@H]2O)[C@](C)(O)C[C@@H](C)C(=O)[C@H](C)[C@@H](O)[C@]1(C)O` [Erythromycin], for which the “Result (zone of inhibition, disk sensitivity)” value in test [1] is recorded as “-”.

For `CC(=O)OCC1=C(C(=O)O)N2C(=O)[C@@H](NC(=O)Cc3cccs3)[C@H]2SC1` [Keflin], the “Result (zone of inhibition, disk sensitivity)” value in test [1] was “-”. Still for that read-out and setting: for `CCC[C@@H]1C[C@@H](C(=O)N[C@@H]([C@H]2O[C@H](SC)[C@H](O)[C@@H](O)[C@H]2O)[C@@H](C)O)N(C)C1` [Lincomycin] the value was “-”; for `C[C@@H]1[C@H](O)[C@@H](C)/C=C/C=C/CC/C=C/C=C/C=C/C=C/C(O[C@H]2O[C@H](C)[C@@H](O)[C@H](N)[C@@H]2O)CC2O[C@](O)(CC(O)C(O)CCC(O)CC(O)CC(O)CC(=O)O[C@H]1C)CC(O)C2C(=O)O` (stereo partly shown) [Nystatin], “-”; for `[H]/N=C(/N)N[C@H]1[C@H](O)[C@@H](O)[C@H](O[C@@H]2O[C@@H](C)[C@](O)(C=O)[C@H]2O[C@@H]2O[C@@H](CO)[C@H](O)[C@@H](O)[C@@H]2NC)[C@@H](N/C(N)=N\[H])[C@@H]1O` [Streptomycin], “+”. Still for that read-out and setting: for `CN(C)C1C(=O)C(C(N)=O)=C(O)C2(O)C(=O)C3=C(O)c4c(O)cccc4C(C)(O)C3CC12` (stereo not shown) [Tetracycline] the value was “+”. Consider `CN[C@H](CC(C)C)C(=O)N[C@H]1C(=O)N[C@@H](CC(N)=O)C(=O)N[C@H]2C(=O)N[C@H]3C(=O)N[C@H](C(=O)N[C@H](C(=O)O)c4cc(O)cc(O)c4-c4cc3ccc4O)[C@H](O)c3ccc(c(Cl)c3)Oc3cc2cc(c3O[C@@H]2O[C@H](CO)[C@@H](O)[C@H](O)[C@H]2O[C@H]2C[C@](C)(N)[C@H](O)[C@H](C)O2)Oc2ccc(cc2Cl)[C@H]1O` [Vancomycin], for which the “Result (zone of inhibition, disk sensitivity)” value in test [1] is listed as “+”. For the molecule `COC(=O)C1=C(C)CS[C@@H]2C(N)C(=O)N12` (stereo partly shown) [methyl 7-amino-3-methyl-3-cephem-4-carboxylate], in test [2], the “deesterification in culture, zone of inhibition after acylation” value is “zone of inhibition”. The “Km value for the enzyme” value in test [3] is given as “about 2.3 mg./ml”. Further, the lowest reaction rate in test [3] (15°, pH 8.0, Sephacryl-purified enzyme, automatic titrator, corrected for non-enzymatic hydrolysis) was 1e-05 mol/min (liter). Also, the highest reaction rate in test [3] (30°, pH 8.0, Sephacryl-purified enzyme, automatic titrator, corrected for non-enzymatic hydrolysis) is recorded as 1.9×10^-5 moles of ester hydrolyzed/(minute) (liter of reaction mixture). For the same molecule, the “activity of cell sonicate supernatant” value in test [3] (supernatant containing 14.4 mg./ml. of protein, Example 15) was 2.2×10^-5 moles of ester hydrolyzed/(minute) (liter). For Polymixin B, the “Result (zone of inhibition, disk sensitivity)” value in test [1] is reported as “-”.
